From publication PMC9266004, “Potential Common Mechanisms of Cytotoxicity Induced by Amide Herbicides via TRPA1 Channel Activation” (International Journal of Environmental Research and Public …, 2022)

What was measured:
A549 cells = test: LDH cytotoxicity assay; assay type: cell-based, human; settings: 150, 300, 600, 1200 μM, 24 h
Protocol: (§1) Wild-type (WT) and TRPA1-KO A549 cells were cultured in McCoy’s 5A Media and F-12K Nutrient Mixture containing 10% fetal bovine serum, respectively. WT/TRPA1-KO A549 cells (5 × 10^4 cells/mL) were seeded in 96-well (100 μL/well) and 6-well (2 mL/well) plates and incubated at 37 °C with 5% CO2 in a humidified incubator for 24 h. WT/TRPA1-KO A549 cells were treated with AHs gradient concentrations (0, 150, 300, 600, 1200 μM) prepared in methanol (1.2 M) for 24 h. Additionally, WT/TRPA1-KO A549 cells were pre-treated with TRPA1 special inhibitor HC-030031 (100 μM) for 0.5 h and then treated with AHs gradient concentrations for 24 h.
Using the Cytotoxicity LDH Assay Kit, lysis buffer (10 μL) was added to the high control well of a 96-well plate containing WT/TRPA1-KO A549 cells, which was then incubated for 0.5 h. Working solution was prepared by adding 5 mL assay buffer to the dye mixture vial, of which 100 μL was added to each well. The plate was protected from light and incubated at room temperature for 0.5 h. Subsequently, 50 μL stop solution was added to each well and the absorbance was measured immediately at 490 nm using a microplate reader (BNR05740, Molecular Devices). The average absorbance was calculated from each sextuplicate set of wells and the background control value was subtracted from each absorbance value. The percentage cytotoxicity was determined using the following equation:cytotoxicity (%) = [(Aa − Ab1)/(Ab2 − Ab1)] × 100% where Aa is the absorbance of the experimental well (containing medium, cells, and compound); Ab2 is the absorbance of the high control well (containing medium, cells, and lysis buffer); and Ab1 is the absorbance of the low control well (containing medium and cells).

TRPA1 mRNA in A549 cells = test: RT-qPCR of TRPA1 mRNA; assay type: cell-based, human; settings: for TRPA1 mRNA expression with HC-030031 pre-treatment compared with AHs treatment alone: HC-030031 50 μM, AHs 150, 300, 600 μM; for expression of TRPA1 mRNA compared with 0 μM AHs: significant at one or more of 150, 300, 600 μM
Protocol: as §1, with “Additionally, WT/TRPA1-KO A549 cells were pre-treated with TRPA1 special inhibitor HC-030031 (100 μM) for 0.5 h and then treated with AHs gradient concentrations for 24 h.” left out
TRIzol Reagent (1 mL) was directly added to WT/TRPA1-KO A549 cells in 6-well plates and total RNA was extracted according to the manufacturer’s instructions. Total RNA was used for cDNA reverse transcription, which was performed according to the PrimeScript RT protocol with the following reaction conditions: 42 °C for 2 min, 4 °C for ∞ (removal of genomic DNA), 37 °C for 15 min, 85 °C for 5 s, and 4 °C for ∞ (reverse transcriptional reaction). RT-qPCR was performed according to the TB Green Premix Ex Taq II protocol. Primer sequences and product lengths were as follows: hTRPA1 (107 bp) forward primer 5′-[…]-3′, reverse primer 5′-[…]-3′; hβ-actin (184 bp) forward primer 5′-[…]-3′, reverse primer 5′-[…]-3′. RT-qPCR was performed using the CFX96 Real-Time System (Bio-Rad Laboratories, Hercules, CA, USA) using the following reaction conditions: 95 °C for 30 s, 40 cycles of 95 °C for 5 s, 60 °C for 30 s, and 72 °C for 30 s, followed by a melting curve from 65 to 95 °C in 0.5 °C/5 s increments. Calculations were performed using the CFX Manager^TM Version 1.0 software (Bio-Rad Laboratories Ltd., Hercules, CA, USA) and are represented as fold change in expression [2^ΔΔC(t)] on a linear scale.

[1] = target: hTRPA1 ARD recombinant protein (Homo sapiens, UniProt O75762); test: LSPR binding analysis (OpenSPR, COOH chip); settings: for kon: read-out: association constant (ka); for koff: read-out: dissociation constant (kd)
Chain of hTRPA1 ARD recombinant protein (O75762 62-609): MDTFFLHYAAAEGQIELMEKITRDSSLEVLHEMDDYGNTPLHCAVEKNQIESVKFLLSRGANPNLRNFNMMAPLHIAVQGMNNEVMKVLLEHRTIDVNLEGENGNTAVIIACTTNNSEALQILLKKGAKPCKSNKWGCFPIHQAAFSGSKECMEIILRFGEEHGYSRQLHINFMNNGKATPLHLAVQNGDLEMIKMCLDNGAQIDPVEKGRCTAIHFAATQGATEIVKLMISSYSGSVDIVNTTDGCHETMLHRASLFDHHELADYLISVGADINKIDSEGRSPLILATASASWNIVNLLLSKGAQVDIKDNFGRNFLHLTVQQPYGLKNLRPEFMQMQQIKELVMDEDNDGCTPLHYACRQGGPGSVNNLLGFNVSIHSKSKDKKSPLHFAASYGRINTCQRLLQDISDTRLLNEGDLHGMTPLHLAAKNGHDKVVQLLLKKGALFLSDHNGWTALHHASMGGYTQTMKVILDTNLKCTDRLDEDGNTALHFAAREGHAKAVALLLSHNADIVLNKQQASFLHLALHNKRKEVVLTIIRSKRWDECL
Protocol: The binding capacity of hTRPA1 ARD recombinant protein and AHs was determined by LSPR according to the OpenSPR (Nicoya Life Sciences, Kitchener, ON, Canada) operating procedure using the COOH chip. After the baseline signal was obtained, the sample was washed with 200 µL 80% isopropyl alcohol for 10 s, and 200 µL ethylcarbodiimide/N-hydroxysuccinimide solution was added. The sample loop was rinsed with phosphate-buffered saline (PBS). hTRPA1 (5 µL) was diluted with PBS, incubated for 4 min, and 200 µL blocking solution was added. […] Contact and dissociation time of analytes and protein were 240 s and 160 s, respectively. TraceDrawer software was applied to determine the association constant (ka), dissociation constant (kd), and affinity constant (KD) using a 1:1 model.

[2] = system: calcium influx in TRPA1-KO A549 cells; test: Cellular calcium imaging (Fluo-4) in TRPA1-KO A549 cells; assay type: cell-based, human; settings: AHs 150-1200 μM
Protocol: The hTRPA1 gene sequence (Gene ID: 8989) was obtained from the National Center for Biotechnology Information (NCBI) website (https://www.ncbi.nlm.nih.gov/gene/8989 accessed on 26 May 2022). Three gRNA sequences, namely, T1: 5′-[…]-[…], T16: 5′-[…]-3′, and T20: 5′-[…]-3′, were designed using the CRISPR online design tool (http://crispr.mit.edu/ accessed on 26 May 2022). Transfection of cells with gRNA-Cas9 was validated in test cells. Cell pool examination was performed using Sanger sequencing. Sequencing and tracer analysis were performed using the online tool TIDE (https://tide-calculator.nki.nl/ accessed on 26 May 2022) to investigate the cleavage efficiency of T1, T16, and T20. Cells from the cell pool were diluted in 96-well plates. Clones were observed under a microscope and wells containing single cell clones were labeled. Single cell clones were transferred to 24-well plates for expansion. Validation of knockout (KO) clones was performed via sequencing to confirm insertion and deletion on the genomes of KO clone candidates. Furthermore, mycoplasmas were detected for cloned cells with high KO using the Mycoplasma PCR Detection Kit.
as §1
Working solution was prepared according to the instructions of the Fluo-4 Direct calcium assay kit and directly added to WT/TRPA1-KO A549 cells in 96-well plates, which were incubated for 0.5 h and kept away from light after removal from the incubator. Single channel fluorescein isothiocyanate (FITC) levels were measured using a confocal high-content imaging system (IXM-C S150069, Molecular Devices, San Jose, CA, USA).

**Q.** Which results are given for CCC(=O)Nc1ccc(Cl)c(Cl)c1 [Propanil, propanil]?
**A.** cell damage (LDH) compared with 0 μM AHs (A549 cells): significantly increased cell damage; TRPA1 mRNA expression with HC-030031 pre-treatment compared with AHs treatment alone (TRPA1 mRNA in A549 cells): significantly reduced; expression of TRPA1 mRNA compared with 0 μM AHs (TRPA1 mRNA in A549 cells): significantly increased; Kd [1]: 16.2 µM; kon [1]: 2390 M⁻¹ s⁻¹; koff [1]: 0.0388 s⁻¹; calcium influx with KO of TRPA1 compared with AHs-treated WT cells [2]: significantly decreased calcium influx

**Q.** Which results are given for CCCOCCN(C(=O)CCl)c1c(CC)cccc1CC [Pretilachlor, pretilachlor]?
**A.** cell damage (LDH) compared with 0 μM AHs (A549 cells): significantly increased cell damage; TRPA1 mRNA expression with HC-030031 pre-treatment compared with AHs treatment alone (TRPA1 mRNA in A549 cells): albeit not significantly; expression of TRPA1 mRNA compared with 0 μM AHs (TRPA1 mRNA in A549 cells): significantly increased; Kd [1]: 309 µM; association constant (ka) ([1]; 1:1 model, TraceDrawer): 14.3 M⁻¹ s⁻¹; dissociation constant (kd) ([1]; 1:1 model, TraceDrawer): 0.00443 s⁻¹; calcium influx with KO of TRPA1 compared with AHs-treated WT cells [2]: significantly decreased calcium influx

**Q.** With CCc1cccc(C)c1N(C(=O)CCl)C(C)COC (stereo not drawn) [Metolachlor, metolachlor] as the molecule, how does the “cell damage (LDH) compared with 0 μM AHs” value (A549 cells) read?
**A.** Its value is “significantly increased cell damage”.

**Q.** What about the “TRPA1 mRNA expression with HC-030031 pre-treatment compared with AHs treatment alone” value (TRPA1 mRNA in A549 cells) of the same molecule?
**A.** The value was “significantly reduced”.

**Q.** What about the “expression of TRPA1 mRNA compared with 0 μM AHs” value (TRPA1 mRNA in A549 cells) of the same molecule?
**A.** Its value is “significantly increased”.

**Q.** What about the Kd [1] of the same molecule?
**A.** The Kd was 364 µM.

**Q.** And the kon [1]?
**A.** The kon was 112 M⁻¹ s⁻¹.

**Q.** What about the koff [1] of the same molecule?
**A.** Its koff is 0.0408 s⁻¹.

**Q.** And the “calcium influx with KO of TRPA1 compared with AHs-treated WT cells” value [2]?
**A.** Its value is “significantly decreased calcium influx”.
